# Source: patent US20250049970A1, “DLL3 TARGETING PEPTIDES AND CONSTRUCTS THEREOF” (MARIANA ONCOLOGY INC., priority 2023, published 2025)
# *1 amine or outer side, *2 acyl side, *3 side chain or, on linkers, in order; H or OH if unused. Where a SMILES comes first, the peptide text is derived from it. Bridges are numbered along the chain shown (N, C = ends). [ ]: non-standard residue; d: D form. The star is where a group is joined. Ala(piperidin-4-yl) = O=C([C@H](CC1CCN([*:3])CC1)N[*:1])[*:2]; DOTA = O=C(O)CN1CCN(CC(=O)O)CCN(CC(=O)*)CCN(CC(=O)O)CC1; X5 = O=C(Cc1ccc(Br)cc1)NCCOCCOCCOCCOCCOCCOCCOCCOCC(=O)*; Trp(7-Me) = Cc1cccc2c(C[C@H](N)C(=O)O)c[nH]c12; Trp(1-Me) = Cn1cc(C[C@H](N)C(=O)O)c2ccccc21; 2Nal = N[C@@H](Cc1ccc2ccccc2c1)C(=O)O; mXylylene = c1cc(C[*:1])cc(C[*:2])c1; oXylylene = c1ccc(C[*:2])c(C[*:1])c1; Chg = N[C@H](C(=O)O)C1CCCCC1; NMeNle = CCCC[C@H](NC)C(=O)O; Nle = CCCC[C@H](N)C(=O)O; CH2 = C([*:1])[*:2]; Sar = CNCC(=O)O
# Target: T1, DLL3 (Homo sapiens, UniProt Q9NYJ7)
# T1 sequence (Q9NYJ7 27-618): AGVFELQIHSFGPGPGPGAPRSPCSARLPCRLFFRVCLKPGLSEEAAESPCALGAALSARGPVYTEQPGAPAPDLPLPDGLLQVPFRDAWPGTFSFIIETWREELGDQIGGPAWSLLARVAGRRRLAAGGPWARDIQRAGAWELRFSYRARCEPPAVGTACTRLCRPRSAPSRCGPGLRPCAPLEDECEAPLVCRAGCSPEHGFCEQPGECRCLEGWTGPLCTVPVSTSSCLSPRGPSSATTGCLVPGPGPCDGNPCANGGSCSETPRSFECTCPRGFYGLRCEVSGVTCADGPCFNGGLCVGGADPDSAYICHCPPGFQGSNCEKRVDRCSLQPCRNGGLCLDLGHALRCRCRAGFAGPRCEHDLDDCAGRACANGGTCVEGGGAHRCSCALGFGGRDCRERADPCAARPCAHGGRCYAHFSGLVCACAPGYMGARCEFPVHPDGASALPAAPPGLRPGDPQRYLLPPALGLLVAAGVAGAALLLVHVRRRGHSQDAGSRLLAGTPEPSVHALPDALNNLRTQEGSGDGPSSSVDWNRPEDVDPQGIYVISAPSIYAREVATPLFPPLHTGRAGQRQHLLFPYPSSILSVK
# Experiment: SPR KD, biotinylated human DLL3 on streptavidin chip (Table 8)
# Parameters: biotin (biotinylated)
# Conditions: biotinylated human DLL3 on streptavidin sensor chip, 25° C., 1:1 binding model; read-out: SPR KD
# Excerpt: Biotinylated target ligand human DLL3 was immobilized on a streptavidin sensor chip. A reference surface was set up for nonspecific binding and refractive index changes. […] Sensorgram curves were fitted with 1:1 binding model, and affinity and kinetic parameters were obtained using Biacore Insight evaluation 4.0. software.
row,Kd,Compound
1,< 1 nM,"CCCC[C@@H](C(=O)N[C@H]1CSCSC[C@@H](C(=O)N[C@@H](Cc2c[nH]c3ccccc23)C(=O)N2CCC[C@H]2C(N)=O)NC(=O)[C@H](CC(=O)O)NC(=O)[C@H](CCCCNC(=O)CN2CCN(CC(=O)O)CCN(CC(=O)O)CCN(CC(=O)O)CC2)NC(=O)[C@H](Cc2ccc3ccccc3c2)NC(=O)[C@H](CC(N)=O)NC(=O)[C@H](CC2CCNCC2)NC1=O)N(C)C(=O)[C@@H](NC(=O)[C@H](Cc1c[nH]c2c(C)cccc12)NC(C)=O)[C@@H](C)O [compound 431, Ac-(7Me-Trp)-T-(NMe-Nle)-C(1)-[3-(4-piperidinyl)-Ala]-N-(2Nal)-Lys(DOTA)-D-C(1)-W-P-CONH2] (Ac-[Trp(7-Me)]T[NMeNle]C[Ala(piperidin-4-yl)]N[2Nal]K(DOTA)DCWP-NH2; linker 4-10 via CH2)"
2,1 to 10 nM,"CCCC[C@H](NC(=O)[C@@H](NC(=O)[C@H](Cc1c[nH]c2ccccc12)NC(C)=O)[C@@H](C)O)C(=O)N[C@H]1CSSC[C@@H](C(=O)N[C@@H](Cc2c[nH]c3ccccc23)C(=O)N2CCC[C@H]2C(N)=O)NC(=O)[C@H](CC(=O)O)NC(=O)[C@H](Cc2cnc[nH]2)NC(=O)[C@H](Cc2c[nH]c3ccccc23)NC(=O)[C@H](CC(N)=O)NC(=O)[C@H](CC(N)=O)NC1=O [compound 339, Ac-W-T-(Nle)-C(3)-N-N-W-H-D-C(3)-W-P-CONH2] (Ac-WT[Nle]CNNWHDCWP-NH2; disulfide 4-10)"
3,100 to 300 nM,"CC(=O)N[C@@H](Cc1c[nH]c2ccccc12)C(=O)N[C@H](C(=O)N[C@H](C(=O)N[C@H]1CSCc2cccc(c2)CSC[C@@H](C(=O)N[C@@H](Cc2c[nH]c3ccccc23)C(=O)N2CCC[C@H]2C(N)=O)NC(=O)[C@H](CC(=O)O)NC(=O)[C@H](CCCCNC(=O)CN2CCN(CC(=O)O)CCN(CC(=O)O)CCN(CC(=O)O)CC2)NC(=O)[C@H](Cc2ccc3ccccc3c2)NC(=O)[C@H](CC(N)=O)NC(=O)[C@H](CC2CCNCC2)NC1=O)C1CCCCC1)[C@@H](C)O [compound 402, Ac-W-T-(Chg)-C(mDBX)-[3-(4-piperidinyl)-Ala]-N-(2Nal)-Lys(DOTA)-D-C(3)-W-P-CONH2] (Ac-WT[Chg]C[Ala(piperidin-4-yl)]N[2Nal]K(DOTA)DCWP-NH2; linker 4-10 via mXylylene)"
4,< 1 nM,CC(=O)N[C@@H](Cc1c[nH]c2ccccc12)C(=O)N[C@H](C(=O)N[C@H](C(=O)N[C@H]1CSCSC[C@@H](C(=O)N[C@@H](Cc2c[nH]c3ccccc23)C(=O)N2CCC[C@H]2C(=O)N[C@H](CCCCNC(=O)COCCOCCOCCOCCOCCOCCOCCOCCNC(=O)Cc2ccc(Br)cc2)C(N)=O)NC(=O)[C@H](CC(=O)O)NC(=O)[C@H](CCCCNC(=O)CN2CCN(CC(=O)O)CCN(CC(=O)O)CCN(CC(=O)O)CC2)NC(=O)[C@H](Cc2ccc3ccccc3c2)NC(=O)[C@H](CC(N)=O)NC(=O)[C@H](CC2CCNCC2)NC1=O)C1CCCCC1)[C@@H](C)O [compound 418] (Ac-WT[Chg]C[Ala(piperidin-4-yl)]N[2Nal]K(DOTA)DCWP[dK](X5)-NH2; linker 4-10 via CH2)
5,< 1 nM,"CC(=O)N[C@@H](Cc1c[nH]c2ccccc12)C(=O)N[C@H](C(=O)N[C@@H](CC(C)(C)C)C(=O)N[C@H]1CSSC[C@@H](C(=O)N[C@@H](Cc2c[nH]c3ccccc23)C(=O)N2CCC[C@H]2C(N)=O)NC(=O)[C@H](CC(=O)O)NC(=O)[C@H](CCCCNC(=O)CN2CCN(CC(=O)O)CCN(CC(=O)O)CCN(CC(=O)O)CC2)NC(=O)[C@H](Cc2ccc3ccccc3c2)NC(=O)[C@H](CC(N)=O)NC(=O)C(CN2CCOCC2)NC1=O)[C@@H](C)O (single isomer, unassigned) [compound 310, Ac-W-T-(t-Bu-Ala)-C(3)-[3-(1-morpholinyl)-Ala]-N-(2Nal)-Lys(DOTA)-D-C(3)-W-P-CONH2]"
6,10 to 100 nM,"CC[C@H](C)[C@H](NC(=O)[C@@H](NC(=O)[C@H](Cc1c[nH]c2ccccc12)NC(=O)[C@H](CCSC)NC(C)=O)[C@@H](C)O)C(=O)N[C@H]1CSSC[C@@H](C(=O)N[C@@H](Cc2c[nH]c3ccccc23)C(=O)N2CCC[C@H]2C(N)=O)NC(=O)[C@H](CC(=O)O)NC(=O)[C@H](Cc2cnc[nH]2)NC(=O)[C@H](Cc2c[nH]c3ccccc23)NC(=O)[C@@H](C)NC(=O)[C@H](CC(N)=O)NC1=O [compound 39, Ac-M-W-T-I-C(3)-N-(D-Ala)-W-H-D-C(3)-W-P-CONH2] (Ac-MWTICN[dA]WHDCWP-NH2; disulfide 5-11)"
7,10 to 100 nM,"CC[C@H](C)[C@H](NC(=O)[C@@H](NC(=O)[C@H](Cc1c[nH]c2ccccc12)NC(C)=O)[C@@H](C)O)C(=O)N[C@H]1CSSC[C@@H](C(=O)N[C@@H](Cc2c[nH]c3ccccc23)C(=O)N(C)CC(N)=O)NC(=O)[C@H](CC(=O)O)NC(=O)[C@H](Cc2cnc[nH]2)NC(=O)[C@H](Cc2c[nH]c3ccccc23)NC(=O)[C@H](CC(N)=O)NC(=O)[C@H](CC(N)=O)NC1=O [compound 334, Ac-W-T-I-C(3)-N-N-W-H-D-C(3)-W-(Sar)-CONH2] (Ac-WTICNNWHDCW[Sar]-NH2; disulfide 4-10)"
8,< 1 nM,"CC(=O)N[C@@H](Cc1c[nH]c2ccccc12)C(=O)N[C@H](C(=O)N[C@H](C(=O)N[C@H]1CSCSC[C@@H](C(=O)N[C@@H](Cc2c[nH]c3ccccc23)C(=O)N2CCC[C@H]2C(N)=O)NC(=O)[C@H](CC(=O)O)NC(=O)[C@H](CCCCNC(=O)CN2CCN(CC(=O)O)CCN(CC(=O)O)CCN(CC(=O)O)CC2)NC(=O)[C@H](Cc2ccc3ccccc3c2)NC(=O)[C@H](CC(N)=O)NC(=O)[C@H](CC2CCNCC2)NC1=O)C1CCCCC1)[C@@H](C)O [compound 398, Ac-W-T-(Chg)-C(1)-[3-(4-piperidinyl)-Ala]-N-(2Nal)-Lys(DOTA)-D-C(1)-W-P-CONH2] (Ac-WT[Chg]C[Ala(piperidin-4-yl)]N[2Nal]K(DOTA)DCWP-NH2; linker 4-10 via CH2)"
9,10 to 100 nM,"CSCC[C@H](NC(C)=O)C(=O)N[C@@H](Cc1c[nH]c2ccccc12)C(=O)N[C@H](C(=O)N[C@@H](C)C(=O)N[C@H]1CSSC[C@@H](C(=O)N[C@@H](Cc2c[nH]c3ccccc23)C(=O)N2CCC[C@H]2C(N)=O)NC(=O)[C@H](CC(=O)O)NC(=O)[C@H](Cc2c[nH]cn2)NC(=O)[C@H](Cc2c[nH]c3ccccc23)NC(=O)[C@H](CC(N)=O)NC(=O)[C@H](CC(N)=O)NC1=O)[C@@H](C)O [compound 14, Ac-M-W-T-(L-Ala)-C(3)-N-N-W-H-D-C(3)-W-P-CONH2] (Ac-MWTACNNWHDCWP-NH2; disulfide 5-11)"
10,1 to 10 nM,"CC[C@H](C)[C@H](NC(=O)[C@@H](NC(=O)[C@H](Cc1c[nH]c2ccccc12)NC(=O)[C@@H](C)NC(C)=O)[C@@H](C)O)C(=O)N[C@H]1CSSC[C@@H](C(=O)N[C@@H](Cc2c[nH]c3ccccc23)C(=O)N2CCC[C@H]2C(N)=O)NC(=O)[C@H](CC(=O)O)NC(=O)[C@H](Cc2cnc[nH]2)NC(=O)[C@H](Cc2c[nH]c3ccccc23)NC(=O)[C@H](CC(N)=O)NC(=O)[C@H](CC(N)=O)NC1=O [compound 2, Ac-(D-Ala)-W-T-I-C(3)-N-N-W-H-D-C(3)-W-P-CONH2] (Ac-[dA]WTICNNWHDCWP-NH2; disulfide 5-11)"
11,< 1 nM,"CCC(C)(C)[C@H](NC(=O)[C@@H](NC(=O)[C@H](Cc1c[nH]c2ccccc12)NC(C)=O)[C@@H](C)O)C(=O)N[C@H]1CSSC[C@@H](C(=O)N[C@@H](Cc2c[nH]c3ccccc23)C(=O)N2CCC[C@H]2C(N)=O)NC(=O)[C@H](CC(=O)O)NC(=O)[C@H](CCCCNC(=O)CN2CCN(CC(=O)O)CCN(CC(=O)O)CCN(CC(=O)O)CC2)NC(=O)[C@H](Cc2ccc3ccccc3c2)NC(=O)[C@H](CC(N)=O)NC(=O)C(CN2CCOCC2)NC1=O (single isomer, unassigned) [compound 311, Ac-W-T-(α-tert-amylGly)-C(3)-[3-(1-morpholinyl)-Ala]-N-(2Nal)-Lys(DOTA)-D-C(3)-W-P-CONH2]"
12,10 to 100 nM,"CC[C@H](C)[C@H](NC(=O)[C@@H](NC(=O)[C@H](Cc1c[nH]c2ccccc12)NC(=O)[C@H](CCSC)NC(C)=O)[C@@H](C)O)C(=O)N[C@H]1CSSC[C@@H](C(=O)N[C@@H](Cc2c[nH]c3ccccc23)C(=O)N2CCC[C@H]2C(N)=O)NC(=O)[C@H](CC(=O)O)NC(=O)[C@H](Cc2cnc[nH]2)NC(=O)[C@H](Cc2cn(C)c3ccccc23)NC(=O)[C@H](CC(N)=O)NC(=O)[C@H](CC(N)=O)NC1=O [compound 42, Ac-M-W-T-I-C(3)-N-N-(1Me-W)-H-D-C(3)-W-P-CONH2] (Ac-MWTICNN[Trp(1-Me)]HDCWP-NH2; disulfide 5-11)"
13,1 to 10 nM,"CC(=O)N[C@@H](Cc1c[nH]c2ccccc12)C(=O)N[C@H](C(=O)N[C@H](C(=O)N[C@H]1CSCc2ccccc2CSC[C@@H](C(=O)N[C@@H](Cc2c[nH]c3ccccc23)C(=O)N2CCC[C@H]2C(N)=O)NC(=O)[C@H](CC(=O)O)NC(=O)[C@H](CCCCNC(=O)CN2CCN(CC(=O)O)CCN(CC(=O)O)CCN(CC(=O)O)CC2)NC(=O)[C@H](Cc2ccc3ccccc3c2)NC(=O)[C@H](CC(N)=O)NC(=O)[C@H](CC2CCNCC2)NC1=O)C1CCCCC1)[C@@H](C)O [compound 401, Ac-W-T-(Chg)-C(oDBX)-[3-(4-piperidinyl)-Ala]-N-(2Nal)-Lys(DOTA)-D-C(3)-W-P-CONH2] (Ac-WT[Chg]C[Ala(piperidin-4-yl)]N[2Nal]K(DOTA)DCWP-NH2; linker 4-10 via oXylylene)"
